The target in data set [1] is T1, receptors CXCR4 (Homo sapiens, UniProt P61073).
T1 construct: endogenous in cells; host or cells: MT4 cells
Description: Inhibition of 125I-SDF-1 binding to CXCR4 on MT4 cells. The settings on record: 125I-SDF-1 ligand, 2 hours under ice-cooling, read-out: Inhibition rate (binding-inhibition %). As to the method:
MT4 cells (5×10^6/0.2 ml/well) were cultured on a 24-well microtiter plate. After the cells were incubated for 24 hours at 37° C. in a carbon dioxide gas incubator, a culture medium was replaced with a buffer solution (0.1% BSA-containing RPMI-1640). Together with a ligand (^125I-SDF-1″, specific activity: 2,200 Ci/mmol; manufactured by Daiichi Chemicals Co., Ltd. (Tokyo)), test materials of various concentrations were subjected to a binding reaction for 2 hours under ice-cooling.

The subject of data set [2] is HIV-1IIIB infected MT-4 cells. Description: Antiviral activity in HIV-1IIIB infected MT-4 cells (MTT method). Type of data set: cell-based. The settings on record: Human immunodeficiency virus 1, MT4, 120 h, MOI 0.01, MT-4 cells, 5 days, read-out: EC50 (concentration required for inhibition of cell disorder due to HIV infection by 50%). The protocol: Immediately after infection, HIV-1IIIB infected MT-4 cells (3.0×10^4/well, MOI (Multiplicity of infection): 0.01) were added to a 96-well microtiter plate together with the test compounds having different concentrations. The cells were cultured in a carbon dioxide incubator at 37° C. for 5 days, and the number of living cells was measured in accordance with the MTT (tetrazolium) method ([…] et al., J. of Virol. Method, 20, 309-321 (1988)). The antiviral activity is represented the concentration required for inhibition of cell disorder due to HIV infection by 50% (EC50: 50% Effective Concentration), and expressed using μM, and the results are shown in Table 2.
(In general: Tetrazolium dyes change colour on reduction, which living cells bring about.)

For data set [3], the system named is ICR mice (male). To be noted: mouse, in vivo, 4 days. The protocol: The acute toxicity of the aforementioned compound was examined. Specifically, 7-week-old ICR mice (male) were divided into several groups (4 or 5 mice in each group), and the mice were bred for 1 week for habituation. Subsequently, each of the compounds of Examples was dissolved in distilled water or physiological saline, and the solution was administered to the mice via tail vein (dose: 15 mg/kg) twice a day for 4 days. On the fifth day, dead mice were counted.

SMILES strings stand for the structures.

What is called inhibition is the percentage by which the read-out fell short of the control.

T1 sequence (P61073 whole entry): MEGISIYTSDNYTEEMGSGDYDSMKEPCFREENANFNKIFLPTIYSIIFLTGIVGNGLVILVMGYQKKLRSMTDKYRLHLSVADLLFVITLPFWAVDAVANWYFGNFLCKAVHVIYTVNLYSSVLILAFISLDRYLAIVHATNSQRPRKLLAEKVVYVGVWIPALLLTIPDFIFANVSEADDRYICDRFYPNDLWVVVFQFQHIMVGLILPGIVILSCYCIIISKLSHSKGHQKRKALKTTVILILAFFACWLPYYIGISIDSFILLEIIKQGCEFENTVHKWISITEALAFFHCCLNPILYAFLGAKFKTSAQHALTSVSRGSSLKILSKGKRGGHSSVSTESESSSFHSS

As for `Cc1ccccc1CNCCC[C@H](NC(=O)c1ccc(CNCc2ncc[nH]2)cc1)C(=O)N[C@@H](C)c1cccc2ccccc12` [Compound No. 1, N-[(S)-1-(1-naphthyl)ethyl]-5-(2-methylbenzyl)amino-2-(S)-[4-[N-(imidazol-2-ylmethyl)aminomethyl]benzoyl]aminopentanoylamide], the inhibition at 0.1 µM in data set [1] is 100%. Besides, in data set [2], the EC50 turned out to be 58 nM.

Consider `COc1ccccc1CNCCC[C@H](NC(=O)c1ccc(CNCc2ncc[nH]2)cc1)C(=O)N[C@@H](C)c1cccc2ccccc12` [Compound No. 2, N-[(S)-1-(1-naphthyl)ethyl]-5-(2-methoxybenzyl)amino-2-(S)-[4-[N-(imidazol-2-ylmethyl)aminomethyl]benzoyl]aminopentanoylamide], for which the inhibition at 0.1 µM in data set [1] is 97.6%. In data set [2], the EC50 stood at 99.6 nM.

Consider `Cc1cccnc1CNCCC[C@H](NC(=O)c1ccc(CNCc2ncc[nH]2)cc1)C(=O)N[C@@H](C)c1cccc2ccccc12` [Compound No. 9, N-[(S)-1-(1-naphthyl)ethyl]-5-(3-methylpyridin-2-yl)methylamino-2-(S)-[4-[N-(imidazol-2-ylmethyl)aminomethyl]benzoyl]aminopentanoylamide], for which, in data set [3], the Dead mice/test mice is 0/5. Besides, the EC50 in data set [2] stood at 55.3 nM.

As for `CCc1ccccc1CNCCC[C@H](NC(=O)c1ccc(CNCc2ncc[nH]2)cc1)C(=O)N[C@@H](C)c1cccc2ccccc12` [Compound No. 22, N-[(S)-1-(1-naphthyl)ethyl]-5-(2-ethylbenzyl)amino-2-(S)-[4-[N-(imidazol-2-ylmethyl)aminomethyl]benzoyl]aminopentanoylamide], the EC50 in data set [2] is 30 nM.

Turning to `C[C@H](NC(=O)[C@H](CCCNC1CCCCC1)NC(=O)c1ccc(CNCc2ncc[nH]2)cc1)c1cccc2ccccc12` [Compound No. 27, N-[(S)-1-(1-naphthyl)ethyl]-5-cyclohexylamino-2-(S)-[4-[N-(imidazol-2-ylmethyl)aminomethyl]benzoyl]aminopentanoylamide], the inhibition at 0.1 µM in data set [1] was determined as 97%.

Turning to `C[C@H](NC(=O)[C@H](CCCNC1CCCc2ccccc21)NC(=O)c1ccc(CNCc2ncc[nH]2)cc1)c1cccc2ccccc12` (stereo partly drawn) [Compound No. 28, N-[(S)-1-(1-naphthyl)ethyl]-5-(1,2,3,4-tetrahydronaphthalen-1-yl)amino-2-(S)-[4-[N-(imidazol-2-ylmethyl)aminomethyl]benzoyl]aminopentanoylamide], the inhibition at 0.1 µM in data set [1] stood at 100%.

Take `C[C@H](NC(=O)[C@H](CCCNC1CCc2ccccc21)NC(=O)c1ccc(CNCc2ncc[nH]2)cc1)c1cccc2ccccc12` (stereo partly drawn) [Compound No. 29, N-[(S)-1-(1-naphthyl)ethyl]-5-(indan-1-yl)amino-2-(S)-[4-[N-(imidazol-2-ylmethyl)aminomethyl]benzoyl]aminopentanoylamide]: in data set [3], the Dead mice/test mice was 0/5. For the same molecule, in data set [1], the inhibition at 0.1 µM amounted to 100%.

Take `CC(C)CN(CCC[C@H](NC(=O)c1ccc(CNCc2ncc[nH]2)cc1)C(=O)N[C@@H](C)c1cccc2ccccc12)CC(C)C` [Compound No. 33, N-[(S)-1-(1-naphthyl)ethyl]-5-diisobutylamino-2-(S)-[4-[N-(imidazol-2-ylmethyl)aminomethyl]benzoyl]aminopentanoylamide]: the Dead mice/test mice in data set [3] is given as 0/5. Further, in data set [1], the inhibition at 0.1 µM came to 100%. Besides, in data set [2], the EC50 amounted to 6.7 nM.

Turning to `CCCN(CCC)CCC[C@H](NC(=O)c1ccc(CNCc2ncc[nH]2)cc1)C(=O)N[C@@H](C)c1cccc2ccccc12` [Compound No. 34, N-[(S)-1-(1-naphthyl)ethyl]-5-di-n-propylamino-2-(S)-[4-[N-(imidazol-2-ylmethyl)aminomethyl]benzoyl]aminopentanoylamide], the Dead mice/test mice in data set [3] is on record as 0/5. For the same molecule, in data set [1], the inhibition at 0.1 µM is 98%. Also, in data set [2], the EC50 worked out at 15 nM.

For the molecule `CCCN(CCC[C@H](NC(=O)c1ccc(CNCc2ncc[nH]2)cc1)C(=O)N[C@@H](C)c1cccc2ccccc12)CC(C)C` [Compound No. 39, N-[(S)-1-(1-naphthyl)ethyl]-5-(N-n-propyl-isobutylamino)-2-(S)-[4-[N-(imidazol-2-ylmethyl)aminomethyl]benzoyl]aminopentanoylamide], the Dead mice/test mice in data set [3] is 0/5. In addition, in data set [2], the EC50 was 14.5 nM.

For the molecule `C[C@H](NC(=O)[C@H](CCCN(C)C1CCCCC1)NC(=O)c1ccc(CNCc2ncc[nH]2)cc1)c1cccc2ccccc12` [Compound No. 42, N-[(S)-1-(1-naphthyl)ethyl]-5-(N-methyl-cyclohexylamino)-2-(S)-[4-[N-(imidazol-2-ylmethyl)aminomethyl]benzoyl]aminopentanoylamide], the Dead mice/test mice in data set [3] is 0/5. Moreover, the EC50 in data set [2] was determined as 14.5 nM.

With `C[C@H](NC(=O)[C@H](CCCN1CCCCCC1)NC(=O)c1ccc(CNCc2ncc[nH]2)cc1)c1cccc2ccccc12` [Compound No. 55, N-[(S)-1-(1-naphthyl)ethyl]-5-(hexamethyleneimin-1-yl)-2-(S)-[4-[N-(imidazol-2-ylmethyl)aminomethyl]benzoyl]aminopentanoylamide], the Dead mice/test mice in data set [3] is given as 0/5. For the same molecule, the inhibition at 0.1 µM in data set [1] was determined as 89.3%. In addition, the EC50 in data set [2] was determined as 29 nM.

For the molecule `CC(C)CN(CCO)CCC[C@H](NC(=O)c1ccc(CNCc2ncc[nH]2)cc1)C(=O)N[C@@H](C)c1cccc2ccccc12` [Compound No. 66, N-[(S)-1-(1-naphthyl)ethyl]-5-(N-isobutyl-(2-hydroxyethyl)amino)-2-(S)-[4-[N-(imidazol-2-ylmethyl)aminomethyl]benzoyl]aminopentanoylamide], the Dead mice/test mice in data set [3] was 0/5. Besides, in data set [1], the inhibition at 0.1 µM is 90.6%. In addition, in data set [2], the EC50 worked out at 20 nM.

Take `C[C@H](NC(=O)[C@H](CCCSC(=N)N)NC(=O)c1ccc(CNCc2ccccn2)cc1)c1cccc2ccccc12` [Compound No. 73, N-[(S)-1-(1-naphthyl)ethyl]-5-sulfinamidino-2-(S)-[4-[N-(pyridin-2-ylmethyl)aminomethyl]benzoyl]aminopentanoylamide]: the Dead mice/test mice in data set [3] is 0/5. Also, the inhibition at 0.1 µM in data set [1] was determined as 93.5%. Also, the EC50 in data set [2] was 69.1 nM.

Turning to `C/N=C(\N)SCCC[C@H](NC(=O)c1ccc(CNCc2ccccn2)cc1)C(=O)N[C@@H](C)c1cccc2ccccc12` [Compound No. 74, N-[(S)-1-(1-naphthyl)ethyl]-5-(N-methylsulfinamidino)-2-(S)-[4-[N-(pyridin-2-ylmethyl)aminomethyl]benzoyl]aminopentanoylamide], the Dead mice/test mice in data set [3] is 0/5. The EC50 in data set [2] is 46.1 nM.

(Values after patent publication US20040254221A1, “Novel Nitrogenous Compound and use thereof” (priority 2001, published 2004).)
